Data taken from patent US20070270421A1, “Novel pyridine Derivative and Pyrimidine Derivative (1)” (priority 2004, published 2007).

Assays:
HGFR autophosphorylation = target: T1, HGFR autophosphorylation (Homo sapiens, UniProt P08581); assay: Inhibitory activity against the HGFR autophosphorylation using ELISA; format: cell-based; conditions: MKN-45 cells, 1 hr treatment, read-out: IC50 (concentration necessary to inhibit HGFR autophosphorylation activity by 50%)
T1 construct: endogenous in cells; host or cells: MKN-45 human gastric cancer cells
T1 sequence (P08581 25-1390): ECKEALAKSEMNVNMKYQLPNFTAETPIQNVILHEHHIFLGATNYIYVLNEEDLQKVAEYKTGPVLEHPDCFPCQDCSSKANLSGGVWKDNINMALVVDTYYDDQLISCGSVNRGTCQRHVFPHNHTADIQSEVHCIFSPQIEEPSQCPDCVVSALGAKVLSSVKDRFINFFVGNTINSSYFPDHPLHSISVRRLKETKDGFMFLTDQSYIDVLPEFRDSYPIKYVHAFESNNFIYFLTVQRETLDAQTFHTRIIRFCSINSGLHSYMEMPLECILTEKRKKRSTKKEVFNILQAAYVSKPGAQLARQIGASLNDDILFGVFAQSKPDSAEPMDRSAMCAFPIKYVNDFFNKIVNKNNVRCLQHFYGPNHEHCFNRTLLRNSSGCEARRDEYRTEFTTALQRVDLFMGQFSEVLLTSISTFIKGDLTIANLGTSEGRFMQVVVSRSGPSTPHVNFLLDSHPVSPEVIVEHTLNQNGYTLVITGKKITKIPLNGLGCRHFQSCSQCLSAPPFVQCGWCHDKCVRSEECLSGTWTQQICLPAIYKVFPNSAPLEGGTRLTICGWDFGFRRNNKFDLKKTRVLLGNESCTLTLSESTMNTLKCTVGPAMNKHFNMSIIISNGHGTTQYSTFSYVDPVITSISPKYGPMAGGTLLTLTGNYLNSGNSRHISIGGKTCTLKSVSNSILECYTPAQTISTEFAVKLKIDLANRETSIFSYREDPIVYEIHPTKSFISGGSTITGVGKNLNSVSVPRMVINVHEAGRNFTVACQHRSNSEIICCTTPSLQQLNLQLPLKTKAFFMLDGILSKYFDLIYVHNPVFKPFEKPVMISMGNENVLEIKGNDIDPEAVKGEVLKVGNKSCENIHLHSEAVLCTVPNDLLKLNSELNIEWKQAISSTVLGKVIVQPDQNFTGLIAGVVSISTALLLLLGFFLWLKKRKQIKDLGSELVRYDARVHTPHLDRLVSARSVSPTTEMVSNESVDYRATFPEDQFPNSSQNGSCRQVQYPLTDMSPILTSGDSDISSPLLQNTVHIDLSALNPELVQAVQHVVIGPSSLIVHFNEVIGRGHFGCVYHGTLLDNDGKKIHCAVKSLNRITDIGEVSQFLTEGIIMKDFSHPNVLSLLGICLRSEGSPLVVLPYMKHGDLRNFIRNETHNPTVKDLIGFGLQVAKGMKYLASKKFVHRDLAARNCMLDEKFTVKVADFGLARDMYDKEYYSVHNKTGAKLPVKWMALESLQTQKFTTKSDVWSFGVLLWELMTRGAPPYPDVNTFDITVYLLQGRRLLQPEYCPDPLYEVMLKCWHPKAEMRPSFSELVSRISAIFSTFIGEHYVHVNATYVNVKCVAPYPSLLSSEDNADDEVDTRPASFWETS
Protocol: Human gastric cancer cells (MKN-45) were suspended in a 1% FBS-containing RPMI1640 medium (purchased from Sigma). The cell suspension (1×10^5 cells/ml) was put in a 96-well plate for cell culture (purchased from NUNC, Production No. 167008) at 0.1 ml/well, and then cultured in a 5% CO2 incubator (37° C.) overnight. After the culture, from each well was removed the supernatant solution, followed by adding 0.05 ml of a 1% FBS-containing RPMI1640 medium. Then, the well was supplied with 0.05 ml of the test substance dissolved in dimethyl sulfoxide (diluted with a 1% FBS-containing RPMI1640 medium), followed by culturing in a 5% CO2 incubator (37° C.) for 1 hr. From each well was removed the supernatant, and each well was washed with 150 μl of PBS, followed by adding 100 μl of a lysis buffer (50 mM Hepes (pH 7.4), 150 mM NaCl, 10% (v/v) glycerol, 1% Triton X-100, 1.5 mM MgCl2, 1 mM EDTA (pH 8.0), 100 mM NaF, 1 mM PMSF, 10 μg/ml Aprotinin, 50 μg/ml Leupeptin, 1 μg/ml Pepstatin A and 1 mM Na3VO4). The plate was shaken at 4° C. for 1 hr to prepare the cell extract.
To a 96-well plate for ELISA (purchased from COSTAR, Production No. 3369) was added 50 μl of 60 mM bicarbonate buffer (pH 9.6) containing 50 μg/ml of an anti-phosphotyrosine antibody (PY20, purchased from Transduction Laboratory, Production No. P-11120). The plate was incubated at 4° C. overnight.
Each well of the plate prepared in 2. was washed three times with 200 μl of PBS, and supplied with 150 μl of 3% BSA/PBS, followed by incubating at room temperature for 2 hrs. Each well was washed three times with 200 μl of PBS, and supplied with 50 μl of the above cell extract, followed by incubating at 4° C. overnight. After the incubation, each well was washed three times with 250 μl of a washing solution (0.1% BSA, 20 mM Tris-HCl (pH 7.6), 137 mM NaCl, and 0.05% Tween-20), and supplied with 70 μl of anti-HGFR antibody (h-Met(C-12), purchased from Santa Cruz, Production No. sc-10) 2,000-fold diluted with a reaction solution (1% BSA, 20 mM Tris-HCl (pH 7.6), 137 mM NaCl and 0.05% Tween-20), followed by incubating at room temperature for 1 hr. The well was washed three times with 250 μl of the washing solution, and supplied with 70 μl of peroxidase-labelled anti-rabbit IgG antibody (purchased from Cell Signaling, Production No. 7074) 2,000-fold diluted with the reaction solution, followed by incubating at room temperature for 1 hr. Each well was washed three times with 250 μl of the washing solution, and supplied with 70 μl of TMB Membrane Peroxidase Substrate (purchased from Funakoshi, Production No. 50-5077-03), followed by incubating at room temperature for 10 min. Each well was supplied with 70 μl of 1 M phosphoric acid, and using the Plate Reader MTP-500 (Corona Electric), the absorbance of the well was instantly determined at a measurement wavelength of 450 nm. While defining the absorbance of a well supplied with the cell extract having no test substance as 100% HGFR autophosphorylation activity, and the absorbance of a well supplied with 50 μl of the lysis buffer as 0% HGFR autophosphorylation activity, the HGFR autophosphorylation activity (%) was calculated for each well. The concentration of the test substance was changed by several levels to calculate HGFR autophosphorylation activities (%) in respective cases, and to calculate the concentration (IC50) of the test substance necessary to inhibit HGFR autophosphorylation activity by 50%.

[1] = test system: Human gastric cancer cells (MKN-45); assay: Inhibitory activity against the proliferation of human gastric cancer cells (MKN-45); format: cell-based; conditions: 72 h, MKN-45, 1% FBS RPMI1640, 3 days, Cell Counting Kit-8, read-out: IC50 (concentration necessary to inhibit the cell proliferation by 50%)
Protocol: Human gastric cancer cells (MKN-45) were suspended in a 1% FBS-containing RPMI1640 medium (purchased from Sigma). The cell suspension (1×10^4 cells/ml) was added in a 96-well plate for cell culture (purchased from NUNC, Production No. 167008) at 0.1 ml/well, and then cultured in a 5% CO2 incubator (37° C.) overnight. After the culture, each well was supplied with 0.1 ml of a test substance diluted with a 1% FBS-containing RPMI1640 medium, followed by culturing in a 5% CO2 incubator (37° C.) for 3 days. After the culture, each well was supplied with 10 μl of Cell Counting Kit-8 (purchased from DOJINDO, Production No. 343-07623), followed by incubation in a 5% CO2 incubator (37° C.) for about 1.5 hrs. After the incubation, using the Plate Reader MTP-500 (Corona Electric), the absorbance of each well was determined at a measurement wavelength of 450 nm and a reference wavelength of 660 nm. The ratio (%) of absorbance of each well supplied with a test substance to absorbance of the well supplied with no test substance was calculated, and the ratio was used to calculate the concentration (IC50) of the test substance necessary to inhibit the cell proliferation by 50%.

Row | SMILES | IC50 (HGFR autophosphorylation) [nM] | IC50 [1] [nM]
1 | CN1CCCN(C(=O)Nc2cc(Oc3ccc(NC(=O)CC(=O)Nc4ccc(F)cc4)c(F)c3)ccn2)CC1 [Example 92, N-(2-Fluoro-4-{2-[(4-methyl-[1,4]diazepane-1-carbonyl)amino]pyridin-4-yloxy}phenyl)-N′-(4-fluorophenyl)malonamide] | 540 | 570
2 | O=C(CC(=O)Nc1ccc(Oc2ccnc(NC(=O)N3CCC(N4CCCC4)CC3)c2)cc1F)Nc1ccc(F)cc1 [Example 82, N-(4-Fluorophenyl)-N′-[2-fluoro-4-(2-{[4-(pyrrolidin-1-yl)piperidine-1-carbonyl]amino}pyridin-4-yloxy)phenyl]malonamide] | 88 | 120
3 | O=C(Cc1ccc(F)cc1)NC(=S)Nc1ccc(Oc2ccnc(NC(=O)N3CCCC3)c2)c(F)c1 [Example 13, 4-(2-Fluoro-4-{3-[2-(4-fluorophenyl)acetyl]thioureido}phenoxy)-2-[(pyrrolidin-1-yl)carbonylamino]pyridine] | 6.8 | 23
4 | CCN(CC)CCCN(C)C(=O)Nc1cc(Oc2ccc(NC(=S)NC(=O)Cc3ccc(F)cc3)cc2F)ccn1 [Example 22, 1-(3-Diethylaminopropyl)-3-[4-(2-fluoro-4-{3-[2-(4-fluorophenyl)acetyl]thioureido}phenoxy)pyridin-2-yl]-1-methylurea] | < 30 | 33
5 | CN1CCC(N(C)C(=O)Nc2cc(Oc3ccc(NC(=O)CC(=O)Nc4ccc(F)cc4)cc3F)ccn2)CC1 [Example 89, N-(3-Fluoro-4-{2-[3-methyl-3-(1-methylpiperidin-4-yl)ureido]pyridin-4-yloxy}phenyl)-N′-(4-fluorophenyl)malonamide] | 49 | 86
6 | O=C(Cc1ccccc1)NC(=O)Nc1ccc(Oc2ccnc(NC(=O)N3CCC(N4CCCC4)CC3)c2)c(F)c1 [Example 45, 4-{2-Fluoro-4-[3-(2-phenylacetyl)ureido]phenoxy}-2-{[4-(pyrrolidin-1-yl)piperidin-1-yl]carbonylamino}pyridine] | 350 | 140
7 | CN1CCN(C(=O)Nc2cc(Oc3ccc(NC(=O)NC(=O)Cc4ccccc4)cc3F)ccn2)CC1 [Example 50, 4-Methylpiperazine-1-carboxylic acid {4-[2-fluoro-4-(3-phenylacetylureido)phenoxy]pyridin-2-yl}amide] | 280 | 160
8 | CN(C)C(=O)Nc1cc(Oc2ccc(NC(=O)NC(=O)Cc3ccccc3)cc2F)ccn1 [Example 44, 2-[(Dimethylamino)carbonylamino]-4-{2-fluoro-4-[3-(2-phenylacetyl)ureido]phenoxy}pyridine] | 350 | 64
9 | O=C(Cc1ccc(F)cc1)NC(=S)Nc1ccc(Oc2cc(NC(=O)N3CCCC3)ncn2)c(F)c1 [Example 3, Pyrrolidine-1-carboxylic acid [6-(2-fluoro-4-{3-[2-(4-fluorophenyl)acetyl]thioureido}phenoxy)pyrimidin-4-yl]amide] | 20 | 40
10 | CN(C)C(=O)Nc1cc(Oc2ccc(NC(=S)NC(=O)CC3CC4CCC3C4)cc2F)ccn1 (stereo not shown) [Example 17, 2-[(Dimethylamino)carbonylamino]-4-{2-fluoro-4-[3-(2-norbornaneacetylthio)ureido]phenoxy}pyridine] | 120 | 570
11 | Cc1cc(Oc2ccnc(NC(=O)N3CCC(N4CCCC4)CC3)c2)ccc1NC(=O)CC(=O)Nc1ccc(F)cc1 [Example 85, N-(4-Fluorophenyl)-N′-[2-methyl-4-(2-{[(4-pyrrolidin-1-yl)piperidine-1-carbonyl]amino}pyridin-4-yloxy)phenyl]malonamide] | 590 | 630
12 | O=C(Cc1ccccc1)NC(=O)Nc1ccc(Oc2ccnc(NC(=O)N3CCCC3)c2)c(F)c1 [Example 43, 4-{2-Fluoro-4-[3-(2-phenylacetyl)ureido]phenoxy}-2-[(pyrrolidin-1-yl)carbonylamino]pyridine] | 59 | 35
13 | O=C(CC(=O)Nc1ccc(Oc2ccnc(NC(=O)C3CC3)c2)cc1F)Nc1ccc(F)cc1 [Example 77, N-(4-Fluorophenyl)-N′-{4-[2-(cyclopropanecarbonylamino)pyridin-4-yloxy]-2-fluorophenyl}malonamide] | 110 | 110
14 | O=C(Cc1ccccc1)NC(=S)Nc1ccc(Oc2ccnc(NC(=O)N3CCOCC3)c2)c(Cl)c1 [Example 11, 4-{2-Chloro-4-[3-(2-phenylacetyl)thioureido]phenoxy}-2-[(morpholin-4-yl)carbonylamino]pyridine] | 43 | 180
15 | O=C(Cc1ccccc1)NC(=O)Nc1ccc(Oc2ccnc(NC(=O)N3CCOCC3)c2)c(F)c1 [Example 48, Morpholine-4-carboxylic acid {4-[2-fluoro-4-(3-phenylacetylureido)phenoxy]pyridin-2-yl}amide] | 260 | 57
16 | CN1CCC(N(C)C(=O)Nc2cc(Oc3ccc(NC(=O)NC(=O)Cc4ccccc4)cc3F)ccn2)CC1 [Example 52, 3-{4-[2-Fluoro-4-(3-phenylacetylureido)phenoxy]pyridin-2-yl]-1-methyl-1-(1-methylpiperidin-4-yl)urea] | 340 | 63
17 | O=C(Cc1ccc(F)cc1)NC(=S)Nc1ccc(Oc2ccnc(NC(=O)N3CCCC3)c2)cc1 [Example 9, Pyrrolidine-1-carboxylic acid [4-(4-{3-[2-(4-fluorophenyl)acetyl]thioureido}phenoxy)pyridin-2-yl]amide] | 20 | 33
18 | O=C(CC(=O)Nc1ccc(Oc2ccnc(NC(=O)N3CCCC3)c2)c(F)c1)Nc1ccc(F)cc1 [Example 56, N-(4-Fluorophenyl)-N′-(3-fluoro-4-{2-[(pyrrolidine-1-carbonyl)amino]pyridin-4-yloxy}phenyl)malonamide] | 130 | 140
19 | Cc1cc(NC(=S)NC(=O)Cc2ccc(F)cc2)ccc1Oc1ccnc(NC(=O)N2CCOCC2)c1 [Example 24, Morpholine-4-carboxylic acid (4-{2-methyl-4-[3-(4-fluorophenyl)acetylthioureido]phenoxy}pyridin-2-yl)amide] | 69 | 180
20 | O=C(Cc1ccccc1)NC(=S)Nc1ccc(Oc2ccnc(NC(=O)N3CCC(O)CC3)c2)c(F)c1 [Example 15, 4-{2-Fluoro-4-[3-(2-phenylacetyl)thioureido]phenoxy}-2-[(4-hydroxypiperidin-1-yl)carbonylamino]pyridine] | 13 | 48
